One assay relates to NCI-H1975. Briefly: Cell proliferation assay (MTT) against cancer cell line NCI-H1975. Format: cell-based. To be noted: Homo sapiens, NCI-H1975, 72 hours treatment, quantity not given. The protocol: A Representative Number of Compounds were Assayed Against Cancer Cell Lines NCI-H1975, Using the Cell Proliferation Assay:
1. 5×10^3 cells per well in 100 μl of medium were seeded in 96-well plate, while the medium contained 5% FBS
2. 24 hours later, 100 μl fresh medium was added with various concentrations of compounds into each well, while the medium here was free of FBS
3. After the cells were treated with compounds for 72 hours, 20 μl MTT (5 mg/ml) was added into each well, and then the assay plate was incubated at 37° C. for 4 more hours.
4. The assay plate was centrifuged at 800 g for 10 min. The medium was aspirated, 150 μl DMSO was added into each well. The plate was gently shaken for 10 min.
5. The absorbance at 570 nm was measured on the plate reader.

The subject of assay [1] is NCI-H1975 cell line xenograft. Briefly: Subcutaneous NCI-H1975 cell line xenograft model in nude mice. In kind it is in vivo. To be noted: for Tumor growth inhibition (TGI, %) in NCI-H1975 xenograft model: nude mice; for Efficacy in the NCI-H1975 xenograft study (in words): Day 14. The protocol:
A representative protocol for the in vivo experiment is as follows to establish the subcutaneous NCI-H1975 cell line xenograft model in nude mice and to evaluate the in vivo therapeutic efficacy of the compounds: H1975 cells were cultured in RPMI1640 containing 10% fetal bovine serum, 1% L-glutamine, 100 U/mL penicillinG and 100 μg/mL streptomycin. Cells in logarithmic growth phase were harvested and resuspended in 1×PBS for implantation. Tumor xenografts were established by injecting tumor cells 5×10^6/mouse into the right flank by sc under sterile conditions. When the tumors reached an appropriate size (100-200 mm^3), mice were randomized into 6 mice per group (8 mice in control group). The tumors were measured using a caliper in two dimensions, length (a), and width (b). Tumor volumes were estimated from measurements of two diameters of the individual tumors as follows: Tumor Volume (mm^3)=(a×b^2)/2 The tumor sizes and animal body weights were measured twice a week. Mice were observed daily for clinical signs. Blood samples were collected 2 hours after the last treatment, plasma samples were prepared and stored at −80° C. Tumor tissues were separated, weighed, taken picture, and subsequently stored at −80° C. for further analysis. All animal experiments were performed in accordance with the Guidelines for Use and Care of Animals of the University of Traditional Medicine. The parameters for in vivo efficacy evaluation were calculated according to the guidance of SFDA. Percent T/C (%) was calculated with the following formula: T/C(%)=(TRTV/CRTV)×100%, where TRTV and CRTV stand for relative tumor volume in treatment group and vehicle control group, respectively. Relative tumor volume (RTV) was calculated using the formula: RTV=Vt/V0, where Vt represents volume on testing day, and V0 represents volume on first day of treatment. […] At the study endpoint, after blood collection, mice were practised euthanasia by cervical dislocation, the tumor tissue was collected first, then the abdominal cavity was cut open, liver and spleen were excised, and weighted after the gallblader was removed respectively. Organ weights between the treated versus the control groups were compared.

The target of a further assay is EGFR (T790M/L858R) (Homo sapiens (Human), UniProt P00533, L858R/T790M). Briefly: In vitro EGFR (T790M/L858R) kinase binding assay (Kd, qPCR readout). The protocol: (§1) Kinase-tagged T7 phage strains were prepared in an E. coli host derived from the BL21 strain. E. coli were grown to log-phase and infected with T7 phage and incubated with shaking at 32° C. until lysis. The lysates were centrifuged and filtered to remove cell debris. The remaining kinases were produced in HEK-293 cells and subsequently tagged with DNA for qPCR detection. Streptavidin-coated magnetic beads were treated with biotinylated small molecule ligands for 30 minutes at room temperature to generate affinity resins for kinase assays. The liganded beads were blocked with excess biotin and washed with blocking buffer (SeaBlock (Pierce), 1% BSA, 0.05% Tween 20, 1 mM DTT) to remove unbound ligand and to reduce non-specific binding. […] All reactions were performed in polystyrene 96-well plates in a final volume of 0.135 ml. […] The kinase concentration in the eluates was measured by qPCR.
Chain of EGFR (T790M/L858R) (P00533 25-1210 T790M/L858R): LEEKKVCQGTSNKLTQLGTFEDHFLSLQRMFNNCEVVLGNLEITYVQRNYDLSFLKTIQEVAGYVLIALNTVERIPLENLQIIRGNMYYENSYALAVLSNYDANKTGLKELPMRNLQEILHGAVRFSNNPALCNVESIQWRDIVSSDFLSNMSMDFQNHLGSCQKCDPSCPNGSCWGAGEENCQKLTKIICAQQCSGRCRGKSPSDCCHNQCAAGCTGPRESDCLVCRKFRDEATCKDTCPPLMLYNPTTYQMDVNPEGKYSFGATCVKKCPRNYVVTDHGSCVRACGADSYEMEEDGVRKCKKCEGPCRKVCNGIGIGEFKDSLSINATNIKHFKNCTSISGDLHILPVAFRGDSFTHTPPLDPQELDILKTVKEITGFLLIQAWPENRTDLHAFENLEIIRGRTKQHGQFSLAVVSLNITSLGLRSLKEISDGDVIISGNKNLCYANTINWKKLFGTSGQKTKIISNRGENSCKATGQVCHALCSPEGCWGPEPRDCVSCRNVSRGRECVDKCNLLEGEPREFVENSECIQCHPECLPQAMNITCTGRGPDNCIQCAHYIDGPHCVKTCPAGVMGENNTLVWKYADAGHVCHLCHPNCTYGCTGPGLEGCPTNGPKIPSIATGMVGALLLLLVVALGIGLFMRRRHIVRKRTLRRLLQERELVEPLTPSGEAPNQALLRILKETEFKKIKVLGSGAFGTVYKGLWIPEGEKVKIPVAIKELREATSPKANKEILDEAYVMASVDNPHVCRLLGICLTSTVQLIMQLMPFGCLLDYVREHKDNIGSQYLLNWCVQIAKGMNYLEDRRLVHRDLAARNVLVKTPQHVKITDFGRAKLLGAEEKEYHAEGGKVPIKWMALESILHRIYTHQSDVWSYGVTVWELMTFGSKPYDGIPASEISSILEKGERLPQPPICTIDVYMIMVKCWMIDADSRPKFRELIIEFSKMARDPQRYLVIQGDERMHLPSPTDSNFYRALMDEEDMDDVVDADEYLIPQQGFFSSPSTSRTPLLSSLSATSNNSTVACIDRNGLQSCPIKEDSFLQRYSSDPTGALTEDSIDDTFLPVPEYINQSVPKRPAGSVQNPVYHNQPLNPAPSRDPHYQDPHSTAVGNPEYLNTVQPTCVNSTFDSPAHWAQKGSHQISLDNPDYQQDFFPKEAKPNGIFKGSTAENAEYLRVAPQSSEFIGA
(§2) An 11-point 3-fold serial dilution of each test compound was prepared in 100% DMSO at 100× final test concentration and subsequently diluted to 1× in the assay (final DMSO concentration=1%). Kds were determined using a compound top concentration=10,000 nM.
Binding constants (Kds) were calculated with a standard dose-response curve using the Hill equation: Response=Background+(Signal−Background)/(1+(Kd^Hill Slope/Dose^Hill Slope)). The Hill Slope was set to −1. Curves were fitted using a non-linear least square fit with the Levenberg-Marquardt algorithm.
On the technique in general: In qPCR the cycle at which signal appears reflects the starting amount.

The target in a further assay is EGFR (Homo sapiens (Human), UniProt P00533). Briefly: In vitro EGFR kinase binding assay (Kd), similar condition. As for the experimental part: as §1, §2
Chain of EGFR (P00533 25-1210): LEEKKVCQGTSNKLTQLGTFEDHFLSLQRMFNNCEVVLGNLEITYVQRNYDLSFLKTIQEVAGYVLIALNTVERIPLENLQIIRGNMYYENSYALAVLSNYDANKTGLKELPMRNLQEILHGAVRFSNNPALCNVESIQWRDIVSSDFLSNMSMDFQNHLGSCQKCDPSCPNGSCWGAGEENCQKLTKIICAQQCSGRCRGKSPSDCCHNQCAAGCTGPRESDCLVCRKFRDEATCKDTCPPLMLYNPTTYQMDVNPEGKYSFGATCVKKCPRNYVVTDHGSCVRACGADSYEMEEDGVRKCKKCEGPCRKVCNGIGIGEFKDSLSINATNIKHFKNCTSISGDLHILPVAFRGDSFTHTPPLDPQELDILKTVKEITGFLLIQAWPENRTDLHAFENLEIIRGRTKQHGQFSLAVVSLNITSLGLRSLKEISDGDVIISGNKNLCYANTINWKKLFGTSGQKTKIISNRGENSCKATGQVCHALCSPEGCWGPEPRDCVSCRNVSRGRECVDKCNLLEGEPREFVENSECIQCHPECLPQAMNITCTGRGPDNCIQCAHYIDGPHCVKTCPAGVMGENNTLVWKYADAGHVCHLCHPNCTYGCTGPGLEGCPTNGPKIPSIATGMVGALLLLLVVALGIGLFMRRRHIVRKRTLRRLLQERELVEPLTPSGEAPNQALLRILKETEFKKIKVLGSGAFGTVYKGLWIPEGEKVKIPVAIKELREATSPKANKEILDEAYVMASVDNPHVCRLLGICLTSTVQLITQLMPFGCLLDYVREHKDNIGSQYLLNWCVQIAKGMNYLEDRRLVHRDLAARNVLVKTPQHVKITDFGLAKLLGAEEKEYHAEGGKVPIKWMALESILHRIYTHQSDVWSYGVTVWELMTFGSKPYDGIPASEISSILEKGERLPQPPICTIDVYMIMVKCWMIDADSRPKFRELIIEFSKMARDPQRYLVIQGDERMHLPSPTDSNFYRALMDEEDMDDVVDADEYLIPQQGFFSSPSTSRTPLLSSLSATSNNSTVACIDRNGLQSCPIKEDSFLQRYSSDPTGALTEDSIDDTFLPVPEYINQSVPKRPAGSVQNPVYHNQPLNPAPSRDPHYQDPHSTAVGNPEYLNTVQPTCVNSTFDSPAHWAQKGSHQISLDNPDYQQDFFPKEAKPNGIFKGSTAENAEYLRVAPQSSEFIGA
(§3) Binding constants (Kds) were calculated with a standard dose-response curve using the Hill equation: Response=Background+(Signal−Background)/(1+(Kd^Hill Slope/Dose^Hill Slope)). The Hill Slope was set to −1. […]

The target of another assay is EGFR (E746-A750del) (Homo sapiens (Human), UniProt P00533, DEL746-750). The experiment in a line: In vitro EGFR (E746-A750del) kinase binding assay (Kd), similar condition. The protocol:
as §1, §2, §3

Entries after “also recorded” stand apart in the source; their conditions may differ.

Chain of EGFR (E746-A750del) (P00533 other isoform, or with tags, fused parts or gaps del E746-A750): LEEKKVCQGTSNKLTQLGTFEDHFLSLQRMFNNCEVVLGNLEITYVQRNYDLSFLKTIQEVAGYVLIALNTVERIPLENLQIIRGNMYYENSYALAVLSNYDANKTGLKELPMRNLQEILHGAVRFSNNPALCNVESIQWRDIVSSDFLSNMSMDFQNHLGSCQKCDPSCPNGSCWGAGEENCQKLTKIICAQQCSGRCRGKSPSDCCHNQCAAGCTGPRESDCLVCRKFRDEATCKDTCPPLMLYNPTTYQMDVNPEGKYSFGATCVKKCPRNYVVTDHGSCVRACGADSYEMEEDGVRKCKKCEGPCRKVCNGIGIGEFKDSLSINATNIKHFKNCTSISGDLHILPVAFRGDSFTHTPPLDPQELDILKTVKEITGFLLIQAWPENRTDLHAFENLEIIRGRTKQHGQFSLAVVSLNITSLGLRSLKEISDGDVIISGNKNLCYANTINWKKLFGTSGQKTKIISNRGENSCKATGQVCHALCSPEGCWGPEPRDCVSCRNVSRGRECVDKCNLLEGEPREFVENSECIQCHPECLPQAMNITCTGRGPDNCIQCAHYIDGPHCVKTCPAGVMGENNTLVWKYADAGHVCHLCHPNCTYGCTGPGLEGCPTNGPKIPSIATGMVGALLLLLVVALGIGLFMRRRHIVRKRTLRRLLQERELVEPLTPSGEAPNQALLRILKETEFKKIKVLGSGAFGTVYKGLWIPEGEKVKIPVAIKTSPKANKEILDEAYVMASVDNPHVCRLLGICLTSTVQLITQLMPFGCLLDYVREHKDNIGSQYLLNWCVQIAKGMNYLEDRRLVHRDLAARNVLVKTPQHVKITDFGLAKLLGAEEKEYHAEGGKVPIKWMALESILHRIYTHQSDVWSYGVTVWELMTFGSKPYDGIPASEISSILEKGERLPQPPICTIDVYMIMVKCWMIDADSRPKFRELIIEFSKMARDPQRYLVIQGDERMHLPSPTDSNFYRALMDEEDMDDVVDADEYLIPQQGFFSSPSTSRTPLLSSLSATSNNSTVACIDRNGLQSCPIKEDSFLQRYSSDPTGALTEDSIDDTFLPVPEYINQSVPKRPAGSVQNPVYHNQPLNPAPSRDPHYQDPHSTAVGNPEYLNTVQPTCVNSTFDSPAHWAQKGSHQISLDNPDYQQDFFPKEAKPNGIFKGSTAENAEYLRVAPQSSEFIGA

The term IC50 denotes the concentration that gives 50% inhibition. A lower IC50 goes with greater potency in that assay. In the assay on NCI-H1975, `C=CC(=O)Nc1cccc(Nc2nc(Nc3ccc(N4CCN(C(C)=O)CC4)cc3OC)ncc2C(F)(F)F)c1` [CO-1686, reference compound] showed an IC50 of 910 nM. In assay [1] (Day 14, 30 mg/kg), the “Tumor growth inhibition (TGI, %) in NCI-H1975 xenograft model” value (shortened to “Tumor growth inhibition (TGI, %)”) is listed as “TGI = 83%”.

One may read the Kd as the free concentration of one partner at which half of the binding sites on the other are occupied at equilibrium, for simple one-to-one binding. Higher therefore signals weaker binding. With `C=CC(=O)Nc1cccc(Nc2nc(Nc3ccc(N4CCN(C(C)=O)CC4)cc3)ncc2C(F)(F)F)c1` [Compound 8, N-[3-[[2-[4-(4-acetylpiperazin-1-yl)anilino]-5-(trifluoromethyl)pyrimidin-4-yl]amino]phenyl]prop-2-enamide], the “Efficacy in the NCI-H1975 xenograft study (in words)” value in assay [1] was “good efficacy”. Also, in assay [1] (Day 14, 30 mg/kg), the “Tumor growth inhibition (TGI, %)” value is “TGI = 49%”. The Kd at EGFR (T790M/L858R) was 0.54 nM; on EGFR, 84 nM; on EGFR (E746-A750del) it was 26 nM.

In the case of `C=CC(=O)Nc1cccc(Nc2nc(Nc3ccc(N4CCN(CC)CC4)cc3)ncc2C(F)(F)F)c1` [Compound 9, N-[3-[[2-[4-(4-ethylpiperazin-1-yl)anilino]-5-(trifluoromethyl)pyrimidin-4-yl]amino]phenyl]prop-2-enamide], the IC50 in the assay on NCI-H1975 was less than 10 nM. Also, the “Efficacy in the NCI-H1975 xenograft study (in words)” value in assay [1] is reported as “good efficacy; also recorded: much better tumor growth inhibition compared with CO-1686”. The “Tumor growth inhibition (TGI, %)” value in assay [1] (Day 14, 6 mg/kg) is “TGI = 76%”. The values for the Kd at EGFR (T790M/L858R), on EGFR and at EGFR (E746-A750del) were 0.037 nM, 15 nM and 4 nM, respectively.

On to `C=CC(=O)Nc1cccc(Nc2nc(Nc3ccc(N4CCN(CC)CC4)cc3OC)ncc2C(F)(F)F)c1` [Compound 10, N-[3-[[2-[4-(4-ethylpiperazin-1-yl)-2-methoxy-anilino]-5-(trifluoromethyl)pyrimidin-4-yl]amino]phenyl]prop-2-enamide], for which, in the assay on NCI-H1975, the IC50 turned out to be 150 nM. Binding at EGFR (T790M/L858R) was put at a Kd of 0.28 nM.

On to `C=CC(=O)Nc1cccc(Oc2nc(Nc3ccc(N4CCN(C)CC4)cc3OC)ncc2Cl)c1` [WZ4002, reference compound], for which, in the assay on NCI-H1975, 67 nM corresponded to half-maximal inhibition (IC50). This lies in the double-digit nanomolar range.

The values above are taken from US10167264B2, “Substituted pyrimidines useful as EGFR-T790M kinase inhibitors” (JIANGSU MEDOLUTION LTD, priority 2014, dated 2019).
